# Measurements published in US20110256298A1, “BEER AND BEER-BASED BEVERAGES AND METHOD OF MODIFICATION OF POLYPHENOLS AND SILICON CONTENT IN THESE BEVERAGES” (priority 2009, published 2011).
# Tests used:
# physchem = format: physicochemical; details: for solubility thermodynamic: aqueous with cosolvent or surfactant or cyclodextrin, thermodynamic from solid
# From the text: The equilibrium solubility of silymarin in two kinds of beer after the addition of the water-soluble mixture with the Silybum marianum polyphenols according to example 1 are shown in the following table: […]
# [1] = Total amount of Silybum marianum polyphenols in bottled beer by HPLC; format: physicochemical; details: example 1 mixture dosed at 100 mg silymarin per liter; for Content in DIA beer: bottled DIA beer; for Content in PILS 12% beer: bottled PILS 12% beer; for Content in Non-alcoholic beer: bottled non-alcoholic beer
# Protocol: The total amount of Silybum marianum polyphenols in beers was determined by HPLC in bottled beer as a sum of silymarin components.
equilibrium solubility in Lager Radegast Premium (physchem),equilibrium solubility in Non-alcoholic Radegast Birell (physchem),Content in DIA beer [1],Content in PILS 12% beer [1],Content in Non-alcoholic beer [1],solubility thermodynamic (physchem; equilibrium solubility in Lager Radegast Premium),solubility thermodynamic (physchem; equilibrium solubility in Non-alcoholic Radegast Birell),Compound
43.03 µg/mL,38.22 µg/mL,5.7 mg/L,15.1 mg/L,11.5 mg/L,,,COc1cc([C@H]2Oc3cc([C@H]4Oc5cc(O)cc(O)c5C(=O)[C@@H]4O)ccc3O[C@@H]2CO)ccc1O [Silybin A]
436.17 µg/mL,400.31 µg/mL,,,,,,silymarin
,,,,,66.1 µg/mL,61.7 µg/mL,COc1cc([C@@H]2[C@H]3CO[C@@]4(O)C(=O)[C@@H]2C=C([C@H]2Oc5cc(O)cc(O)c5C(=O)[C@@H]2O)[C@@H]34)ccc1O [Silydianin]
85.18 µg/mL,75.70 µg/mL,15.4 mg/L,28.4 mg/L,29.4 mg/L,,,COc1cc([C@@H]2Oc3cc([C@H]4Oc5cc(O)cc(O)c5C(=O)[C@@H]4O)ccc3O[C@H]2CO)ccc1O [Silybin B]
54.33 µg/mL,48.22 µg/mL,20.9 mg/L,15.3 mg/L,12.5 mg/L,,,Isosilybin A + B
187.51 µg/mL,176.46 µg/mL,32.7 mg/L,42.1 mg/L,40.5 mg/L,,,COc1cc([C@@H]2Oc3c(O)cc([C@H]4Oc5cc(O)cc(O)c5C(=O)[C@@H]4O)cc3[C@H]2CO)ccc1O [Silychristin]
